Key:
KIT = KIT (Homo sapiens, UniProt P10721); assay: Kinase active site-directed competition binding assay; details: read-out: Percent Control at 10μM
KIT (D816V) = KIT (D816V) (Homo sapiens, UniProt P10721, D816V); assay: as above; details: read-out: Percent Control at 10μM
hookworm tubulin = details: cited from earlier work
mammalian tubulin = details: fold less potency than on hookworm tubulin; cited from earlier work

Sequence of KIT (D816V) (P10721 26-976 D816V): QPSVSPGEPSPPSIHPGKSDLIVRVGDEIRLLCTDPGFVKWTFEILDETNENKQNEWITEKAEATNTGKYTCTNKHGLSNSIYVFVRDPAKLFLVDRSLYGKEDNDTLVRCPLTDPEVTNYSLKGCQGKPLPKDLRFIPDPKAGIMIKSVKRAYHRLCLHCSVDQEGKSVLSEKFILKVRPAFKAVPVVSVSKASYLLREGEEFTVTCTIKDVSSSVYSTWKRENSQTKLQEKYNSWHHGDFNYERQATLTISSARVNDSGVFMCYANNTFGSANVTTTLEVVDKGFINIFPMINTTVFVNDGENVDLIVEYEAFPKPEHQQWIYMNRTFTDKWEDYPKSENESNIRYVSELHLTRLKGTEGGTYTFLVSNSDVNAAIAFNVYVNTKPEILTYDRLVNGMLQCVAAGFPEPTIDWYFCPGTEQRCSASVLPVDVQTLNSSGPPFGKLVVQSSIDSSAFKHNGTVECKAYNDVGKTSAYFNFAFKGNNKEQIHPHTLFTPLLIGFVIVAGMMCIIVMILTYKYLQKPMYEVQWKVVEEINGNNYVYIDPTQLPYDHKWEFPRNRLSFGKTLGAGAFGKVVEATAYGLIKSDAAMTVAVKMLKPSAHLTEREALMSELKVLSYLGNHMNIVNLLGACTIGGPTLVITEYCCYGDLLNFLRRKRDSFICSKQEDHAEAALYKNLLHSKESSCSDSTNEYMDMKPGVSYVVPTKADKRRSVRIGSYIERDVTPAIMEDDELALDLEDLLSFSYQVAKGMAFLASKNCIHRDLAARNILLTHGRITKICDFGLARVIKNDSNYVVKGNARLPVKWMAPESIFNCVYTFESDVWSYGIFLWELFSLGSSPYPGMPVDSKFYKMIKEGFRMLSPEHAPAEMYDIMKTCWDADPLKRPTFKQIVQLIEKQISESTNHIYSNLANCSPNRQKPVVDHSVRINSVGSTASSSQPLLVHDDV
Sequence of KIT (P10721 26-976): as the sequence (P10721 26-976 D816V) above, with V791D counted along it

remaining binding at 10 µM (KIT): 7.4% | remaining binding at 10 µM (KIT (D816V)): 33%
Compound: COC(=O)Nc1nc2ccc(C(=O)c3ccccc3)cc2[nH]1 [MBZ, mebendazole]
inhibition of hookworm tubulin (potency in words) (hookworm tubulin): potent nanomolar inhibition | potency on mammalian tubulin relative to hookworm tubulin (fold less) (mammalian tubulin): 1000 x

— article PMC5848469 (Combinatorial chemistry & high throughput screening, 2015)
